In patent US10927115B2, “Substituted heterocycles for targeting Hsp90” (Duke University, priority 2012, dated 2021):

How the values were obtained:
BT474 = assay: Fluorescence microscopy uptake of probe in tumor cells; assay type: cell-based, human; settings: micromolar concentrations, FIG. 4
Text: (§1) In one experiment, the fluorescein compound 10 was applied at micromolar concentrations to four types of tumor cells. […] The probe (10) fluoresces to give green staining in images obtained; in FIG. 4, the green staining appears white.

Huh7 cell line = assay: as above; assay type: cell-based, human; settings: micromolar concentrations; Huh7, non-metastatic; FIG. 4
Text: as §1

MCF-7 = assay: as above; assay type: cell-based, human; settings: micromolar concentrations, FIG. 4
Text: as §1

MDA-MB 468 = assay: as above; assay type: cell-based, human; settings: micromolar concentrations, FIG. 4
Text: as §1

MCF10 (benign) cells = assay: Probe detection of Hsp90 in cells ± membrane permeabilization with Triton X 100; assay type: cell-based; settings: MCF10, non-permeabilized; FIG. 5B
Protocol: (§2) In another experiment, MCF7 (metastatic) and MCF10 (benign) cells were treated with an Hsp90 antibody±membrane permeabilization with Triton X 100. […] After permeabilization the antibody recognizes intracellular Hsp90. […] The experiment was also performed using fluorescein compound 10. […] In FIGS. 5A-5B the green staining from compound 10 fluorescence appears white, while blue from the DAPI-stained nuclei appears gray.

MCF7 (metastatic) cells = assay: as above; assay type: cell-based; settings: FIG. 5B
Protocol: as §2

MCF7 cells = assay: Compound 10 fluorescence in MCF7 cells with anti-Hsp90 antibody or competing compound 5; assay type: cell-based; settings: FIG. 6B
Protocol: In FIG. 6B, the compound was added in the presence of an antibody to Hsp90. […] DAPI (blue) highlights the nucleus of the cell. In FIG. 6 the green staining from compound 10 fluorescence appears white, while blue from the DAPI-stained nuclei appears gray.

xenografts (MDA-MB 468) = assay: Confocal analysis of xenograft tissue slices after IP injection; assay type: in vivo; settings: harvested one hour after injection (IP), FIG. 8
Protocol: Tissue slices were prepared from the harvested xenografts and prepared for analysis by confocal analysis. […] A tissue slice from the control experiment is shown in which the animal was injected with vehicle alone (DMSO). Only background fluorescence is detected. In FIG. 8 the green staining from compound 10 fluorescence appears white or light gray, while blue from the DAPI-stained nuclei appears dark gray.

[1] = tested on: MDA-MB-468 tumor-bearing mice; assay: Biodistribution of compound 10 in mouse xenografts by flow cytometry; assay type: in vivo, NOD/SCID mice; settings: 1 mg/mouse intraperitoneally, 2, 24, 48 or 72 hours
Protocol: MDA-MB-468 cells (5M cells/mouse) were injected to the flank of NOD/SCID mice. When tumors reached 5-10 mm in diameter, tumor-bearing mice were intraperitoneally injected with compound 10 (1 mg/mouse, in 100 μL of DMSO). After 2, 24, 48 or 72 hours, mice were sacrificed and tumors, livers and spleens were harvested. Tumors and livers were digested with collagenase/hyarulonidase/DNase for 1 hour at 37° C., and ficolled to eliminate debris and dead cells, and then washed. Cells in tumor digest were labeled with anti-mouse CD45-biotin+anti-H2-kD-biotin for 15 min on ice, and then 15 min with streptavidin-APC. Tumor cells were analyzed by flow cytometry to detect fluorescence from compound 10. Mouse lineage negative cells were gated for the analysis. Spleen were minced and passed through the strainer. Splenocytes, liver cells and tumor cells were analyzed by flow cytometry to detect fluorescence from compound 10.
Spleen were minced and passed through a strainer to get rid of aggregations/membranous tissue. Cells were stained with violet viability dye. Viable cells were analyzed for their compound 10 uptake.
Liver tissues were minced with blades and digested with triple enzyme buffer (collagenase III, hyarulonidase, DNAse) for 1 h at 37° C., and cells were passed through a strainer to get rid of aggregations. Cells were stained with violet viability dye. Viable cells were analyzed for their compound 10 uptake.
Tumor tissues were minced with blades and digested with triple enzyme buffer (collagenase III, hyarulonidase, DNAse) for 1 h at 37° C., and cells were passed through a strainer to get rid of aggregations. Cells were stained with anti-mouse CD45-biotin/anti-H2-kd-biotin and then streptavidin-APC and violet viability dye. Viable and CD45/H2-kd negative cells were analyzed for their compound 10 uptake.

MDA-MB-468 tumor [2] = assay: Tumor labeling experiment, frozen sections under fluorescent microscope; assay type: in vivo, NOD/SCID mice; settings: 1 mg/mouse intraperitoneal; from 2 to 48 h; FIG. 12
Protocol: MDA-MB-468 tumor cells (5 M cells/mouse) were injected to the flank of NOD/SCID mice. After 3 weeks, tumor volumes reached 400-450 mm^3. Mice were treated/untreated with intraperitoneal injection of compound 10 (1 mg/mouse). After 2, 24, 48 and 72 hours, mice were sacrificed, and tumor tissues were frozen in OCT compound. FITC(+) cells in tumor tissues (frozen sections) were analyzed under fluorescent microscope (Axio Observer). In FIG. 12, the green staining from compound 10 fluorescence appears white or light gray.

Hsp90 = assay: Recovery of compound 10 bound to purified Hsp90 by microanion exchange chromatography; assay type: binding, pig; settings: excess compound 10, dialysis; Western blot and mass spectrometry; FIG. 13A
Protocol: Hsp90 was purified from pig mammary gland as described in Hughes et al., Bioorg Med Chem. 2012, 20(10):3298-3305. The purified protein (0.3 g) was mixed with an excess of compound 10. The unbound probe was removed by dialysis and the labeled protein subjected to microanion exchange chromatography using a Pharmacia SMART system. Column fractions (100 μL) were collected and analyzed for fluorescence in a plate reader. […] The chromatography experiment was then repeated on cell extracts prepared from MCF7 and BT474 cells treated with compound 10.

MCF cells = assay: Heat treatment of cells, compound 10 uptake, micro anion-exchange chromatography of extracts; assay type: cell-based; settings: 10 μM, FIG. 13B
Protocol: MCF cells were heated to 42° C. or maintained at 37° C. for 60 minutes. Compound 10 was added (10 μM) and after 60 minutes the cells harvested. Extracts were prepared and separated by micro anion-exchange chromatography. Column fractions were analyzed for the presence of compound 10.

MDA-MB-468 tumor [3] = assay: In vivo detection of compound 10 with optical spectroscopy; set-up: species or system SCID mice; settings: 1 mg via tail vein, FIG. 15
Protocol: MDA-MB-468 tumor cells (1 M cells/mouse) were injected to the flank of SCID mice. Three weeks later, when tumor size reached 5-8 mm in diameter, the experiment was performed. Baseline autofluorescence levels were measured for tumor and normal tissues (skin adjacent to tumor). 1 mg or 0.5 mg of compound 10 was injected via tail vein. After drug injection, fluorescence signals were measured with the optical spectroscopy (˜30 min). Two days after injection, measurement of fluorescence signal was repeated.
Normal: Normal skin adjacent to tumor. All data are normalized to peak fluorescence intensity to compare fluorescence line shapes. […] Measurements were made within a few minutes of injection.

SMILES: Cc1nn(-c2ccc(C(N)=O)c(NCCCOCCOCCOCCOCCOCCCNC(=S)Nc3ccc4c(c3)C(=O)OC43c4ccc(O)cc4Oc4cc(O)ccc43)c2)c2c1C(=O)CC(C)(C)C2 [Compound 10, 2-((1-((3′,6′-dihydroxy-3-oxo-3H-spiro[isobenzofuran-1,9′-xanthen]-5-yl)amino)-1-thioxo-6,9,12,15,18-pentaoxa-2-azahenicosan-21-yl)amino)-4-(3,6,6-trimethyl-4-oxo-4,5,6,7-tetrahydro-1H-indazol-1-yl)benzamide]
- uptake of the probe (BT474): take up the probe readily
- uptake of the probe (Huh7 cell line): does not absorb the probe
- uptake of the probe (MCF-7): take up the probe readily
- uptake of the probe (MDA-MB 468): take up the probe readily
- probe entry and detection of Hsp90 (MCF10 (benign) cells): not in MCF10 cells
- probe entry and detection of Hsp90 (MCF7 (metastatic) cells; MCF7, non-permeabilized): enters and detects Hsp90
- detection of intracellular Hsp90 following permeabilization (MCF7 (metastatic) cells; MCF7 compared with MCF10, Triton X 100): detects more intracellular Hsp90 in MCF7s
- localisation of the probe in the presence of an antibody to Hsp90 (MCF7 cells): accumulate at the membrane
- presence of compound in tumor cells of xenograft (xenografts (MDA-MB 468)): detected within the tumor cells
- accumulation in splenocytes ([1]; FIG. 10A): little accumulation
- accumulation in liver cells ([1]; FIG. 10B): little accumulation
- accumulation in tumor cells ([1]; FIG. 10C): high degree of accumulation
- FITC signal of tumor cells in frozen sections (MDA-MB-468 tumor [2]): intense FITC signal
- fluorescence elution profile of labeled purified Hsp90 (Hsp90): single peak was recovered by fluorescence that correlated with elution of Hsp90
- major peak of fluorescence of cell extract (MCF cells; 60 minutes): correlates with elution of Hsp90
- effect of heat treatment on uptake (MCF cells; 42° C. vs 37° C. for 60 minutes): increased uptake
- fluorescence signal in tumor, Day 3 (MDA-MB-468 tumor [3]): still retains FITC signal
- fluorescence signal at normal site, Day 3 (MDA-MB-468 tumor [3]; normal skin adjacent to tumor): declined to pre-injection baseline level
- fluorescence signal, normal skin versus tumor, Day 0 (MDA-MB-468 tumor [3]; within a few minutes of injection): Normal shows higher signal than tumor
